# Results taken from ChEMBL document CHEMBL5390201, “The Natural Alkaloid (-)-N-Hydroxyapiosporamide Suppresses Colorectal Tumor Progression as an NF-κB Pathway Inhibitor by Targeting the TAK1-TRAF6 Complex” (J Nat Prod, 2023).
# The source made the active and inactive calls. No cut-off for these calls is given here.
# How the values were obtained:
# [1] = Toxicity in athymic nude BALB/c mouse xenografted with human HCT-116 cells assessed as reduction in body weight at 5 to 15 mg/kg, ip administered every other day and measured every other day for 16 days; type: organism-based; details: in vivo, 384 h, dose 5-15 mg/kg, time 16 day
# Mus musculus [2] = assay: (§1) Anti-inflammatory activity in AOM/DSS-induced BALB/c mouse model inflammatory bowel disease assessed as reduction in DAI score at 5 to 10 mg/kg, ip pretreated with AOM for 7 days further replaced with DSS for 7 days and repeated for 2 times followed by every 2 days compound treatment for […] starting from day 50 and measured once a week; type: functional, organism-based; details: dose 5-10 mg/kg, time 21.0 day
# HCT-116 [3] = assay: Cytotoxicity against human HCT-116 cells assessed as inhibition of cell growth incubated for 24 hrs by SRB assay; type: functional, cell-based; details: HCT-116, 24 h
# HCT-116 [4] = assay: Inhibition of colony formation in human HCT-116 cells at 0.25 to 10 uM incubated for 24 hrs and measured after 14 days by crystal violet staining based assay; type: functional, cell-based; details: dose 0.25-10 µM, time 14.0 day
# HCT-116 [5] = assay: Induction of cell cycle arrest in human HCT-116 cells assessed as accumulation of cells at S phase at 1 uM by RNase/PI staining based flow cytometry analysis (reference value: 43.77 %); type: functional
# HCT-116 [6] = assay: Induction of apoptosis in human HCT-116 cells assessed as viable cells at 5 uM incubated for 24 hrs by Annexin V-FITC/PI staining based flow cytometric analysis (reference value: 88.8%); type: functional; details: read-out: Activity
# HCT-116 [7] = assay: Induction of apoptosis in human HCT-116 cells assessed as late apoptotic cells at 10 uM incubated for 24 hrs by Annexin V-FITC/PI staining based flow cytometric analysis (reference value: 2.9 %); type: functional
# HCT-116 [8] = assay: Induction of apoptosis in human HCT-116 cells assessed as late apoptotic cells at 0.5 uM incubated for 24 hrs by Annexin V-FITC/PI staining based flow cytometric analysis (reference value: 2.9 %); type: functional
# HCT-116 [9] = assay: Induction of apoptosis in human HCT-116 cells assessed as necrotic cells at 0.25 uM incubated for 24 hrs by Annexin V-FITC/PI staining based flow cytometric analysis (reference value: 1.1 %); type: functional
# HT-29 [10] = assay: Induction of apoptosis in human HT-29 cells assessed as viable cells at 10 uM incubated for 24 hrs by Annexin V-FITC/PI staining based flow cytometric analysis (reference value: 93 %); type: functional; details: read-out: Activity
# HT-29 [11] = assay: Induction of apoptosis in human HT-29 cells assessed as late apoptotic cells at 10 uM incubated for 24 hrs by Annexin V-FITC/PI staining based flow cytometric analysis (reference value: 1.56 %); type: functional
# HT-29 [12] = assay: Induction of apoptosis in human HT-29 cells assessed as late apoptotic cells at 5 uM incubated for 24 hrs by Annexin V-FITC/PI staining based flow cytometric analysis (reference value: 6.91 %); type: functional
# HCT-116 [13] = assay: Induction of apoptosis in human HCT-116 cells assessed as inhibition of PARP protein expression measured for 24 hrs by Western blot analysis; type: functional, cell-based; details: dose 0-10 µM
# HT-29 [14] = assay: Induction of apoptosis in human HT-29 cells assessed as inhibition of PARP protein expression measured for 24 hrs by Western blot analysis; type: functional, cell-based; details: dose 0-10 µM
# HT-29 [15] = assay: Induction of apoptosis in human HT-29 cells assessed as inhibition of caspase 3 protein expression measured for 24 hrs by Western blot analysis; type: functional, cell-based; details: dose 0-10 µM
# HT-29 [16] = assay: Induction of apoptosis in human HT-29 cells assessed as increase in cleavage of PARP measured for 24 hrs by Western blot analysis; type: functional, cell-based; details: dose 0-10 µM
# Mus musculus [17] = assay: In vivo inhibition of NFkappaB activation in LPS-induced BALB/c mouse model of endotoxin shock assessed as inhibition of IL6 mRNA expression in liver at 5 mg/kg, ip pretreated for 4 hrs followed by LPS stimulation for 1 hr by RT-PCR analysis; type: functional, organism-based; details: time 5.0 hrs
# HCT-116 [18] = assay: Induction of autophagy in human HCT-116 cells assessed as increase in LC3 protein expression at 1 to 10 uM incubated for 24 hrs by Western blot analysis; type: functional, cell-based; details: dose 1-10 µM
# HT-29 [19] = assay: Induction of autophagy in human HT-29 cells transfected with GFP-LC3 assessed as increase in LC3 dot puncta at 1 to 10 uM incubated for 24 hrs by fluorescence microscopy; type: functional, cell-based; details: dose 1-10 µM
# HCT-116 [20] = assay: Induction of autophagy in human HCT-116 cells assessed as increase in autophagic vesicles at 1 to 10 uM incubated for 24 hrs MDC staining-based fluorescence microscopy; type: functional, cell-based; details: dose 1-10 µM
# [21] = molecular target: T1, Nuclear factor NF-kappa-B complex (Homo sapiens) (UniProt Q00653+P19838+Q04206); assay: Inhibition of TNF-alpha induced NFkappaB activation in human HT-29 cells assessed as downregulation of A20 gene expression pretreated for 24 hrs followed by TNFalpha stimulation and measured after 2 hrs by quantitative RT-PCR analysis; type: cell-based; details: dose 1-10 µM, time 26.0 hrs
# T1 sequence (P19838 whole entry, looked up): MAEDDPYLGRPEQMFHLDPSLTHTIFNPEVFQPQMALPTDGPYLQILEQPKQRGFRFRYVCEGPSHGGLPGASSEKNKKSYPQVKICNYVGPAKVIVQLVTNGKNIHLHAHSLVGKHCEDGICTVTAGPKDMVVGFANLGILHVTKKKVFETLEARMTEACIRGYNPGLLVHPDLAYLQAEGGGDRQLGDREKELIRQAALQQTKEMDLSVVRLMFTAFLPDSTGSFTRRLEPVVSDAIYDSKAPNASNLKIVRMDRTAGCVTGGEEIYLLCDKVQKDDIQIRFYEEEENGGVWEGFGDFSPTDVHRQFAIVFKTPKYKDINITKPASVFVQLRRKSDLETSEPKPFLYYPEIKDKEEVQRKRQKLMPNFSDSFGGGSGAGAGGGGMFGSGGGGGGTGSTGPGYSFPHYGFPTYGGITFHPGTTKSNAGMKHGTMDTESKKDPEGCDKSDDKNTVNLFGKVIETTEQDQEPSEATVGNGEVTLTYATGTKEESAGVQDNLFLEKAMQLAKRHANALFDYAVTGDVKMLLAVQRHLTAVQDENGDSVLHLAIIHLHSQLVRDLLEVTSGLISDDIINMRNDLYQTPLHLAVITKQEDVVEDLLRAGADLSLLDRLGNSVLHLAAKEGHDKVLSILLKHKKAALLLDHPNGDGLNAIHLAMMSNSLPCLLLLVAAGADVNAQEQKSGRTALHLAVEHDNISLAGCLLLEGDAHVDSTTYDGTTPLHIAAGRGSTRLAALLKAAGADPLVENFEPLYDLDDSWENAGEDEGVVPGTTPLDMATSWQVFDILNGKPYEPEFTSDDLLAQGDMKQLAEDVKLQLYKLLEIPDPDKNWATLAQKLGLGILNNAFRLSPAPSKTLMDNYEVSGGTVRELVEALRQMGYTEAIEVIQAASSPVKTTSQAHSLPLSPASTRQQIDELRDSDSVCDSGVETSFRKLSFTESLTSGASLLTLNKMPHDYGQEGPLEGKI
# T1 sequence (Q00653 whole entry, looked up): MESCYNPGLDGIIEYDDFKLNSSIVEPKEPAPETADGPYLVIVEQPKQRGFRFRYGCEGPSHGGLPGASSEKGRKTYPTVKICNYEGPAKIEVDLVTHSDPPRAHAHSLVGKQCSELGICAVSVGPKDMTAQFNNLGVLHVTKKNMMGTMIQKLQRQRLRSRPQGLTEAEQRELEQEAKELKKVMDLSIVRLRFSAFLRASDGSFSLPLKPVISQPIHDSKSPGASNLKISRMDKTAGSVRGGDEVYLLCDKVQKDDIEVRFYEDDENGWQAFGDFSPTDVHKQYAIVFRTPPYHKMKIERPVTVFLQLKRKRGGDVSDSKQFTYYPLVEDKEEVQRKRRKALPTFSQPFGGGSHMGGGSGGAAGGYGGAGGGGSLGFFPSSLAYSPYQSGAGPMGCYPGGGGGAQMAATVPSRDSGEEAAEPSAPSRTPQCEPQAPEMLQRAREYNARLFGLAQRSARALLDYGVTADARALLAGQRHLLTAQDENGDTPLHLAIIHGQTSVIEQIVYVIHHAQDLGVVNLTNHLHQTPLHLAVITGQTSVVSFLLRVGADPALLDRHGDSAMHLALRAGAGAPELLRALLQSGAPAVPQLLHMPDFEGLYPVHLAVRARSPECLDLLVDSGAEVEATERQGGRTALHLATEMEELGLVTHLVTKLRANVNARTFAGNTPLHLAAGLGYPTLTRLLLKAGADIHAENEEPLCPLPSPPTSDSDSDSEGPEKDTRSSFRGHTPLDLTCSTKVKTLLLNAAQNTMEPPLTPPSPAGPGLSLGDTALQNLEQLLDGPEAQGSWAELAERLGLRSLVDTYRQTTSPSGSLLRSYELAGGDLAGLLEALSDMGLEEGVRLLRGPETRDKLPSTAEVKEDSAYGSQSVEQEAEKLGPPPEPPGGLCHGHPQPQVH
# T1 sequence (Q04206 whole entry, looked up): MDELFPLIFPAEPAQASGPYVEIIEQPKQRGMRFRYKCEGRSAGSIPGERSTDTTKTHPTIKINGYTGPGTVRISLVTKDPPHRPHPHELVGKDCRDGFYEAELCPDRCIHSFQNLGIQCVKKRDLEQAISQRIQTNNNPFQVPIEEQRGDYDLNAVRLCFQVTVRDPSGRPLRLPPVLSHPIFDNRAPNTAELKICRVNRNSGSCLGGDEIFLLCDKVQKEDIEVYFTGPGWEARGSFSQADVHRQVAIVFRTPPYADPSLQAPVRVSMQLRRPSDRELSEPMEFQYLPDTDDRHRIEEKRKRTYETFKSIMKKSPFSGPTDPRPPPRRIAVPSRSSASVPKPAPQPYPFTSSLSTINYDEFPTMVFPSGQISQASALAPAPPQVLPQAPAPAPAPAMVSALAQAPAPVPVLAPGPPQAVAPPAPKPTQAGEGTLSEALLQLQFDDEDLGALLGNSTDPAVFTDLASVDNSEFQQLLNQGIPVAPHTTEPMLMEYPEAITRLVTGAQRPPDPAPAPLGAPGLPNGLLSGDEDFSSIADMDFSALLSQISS
# [22] = molecular target: T1, Nuclear factor NF-kappa-B complex (Homo sapiens); assay: Inhibition of TNF-alpha induced NFkappaB activation in human HT-29 cells assessed as downregulation of E-selectin gene expression pretreated for 24 hrs followed by TNFalpha stimulation and measured after 2 hrs by quantitative RT-PCR analysis; type: cell-based; details: dose 1-10 µM, time 26.0 hrs
# RAW264.7 = assay: Inhibition of LPS-induced NFkappaB activation in mouse RAW264.7 cells assessed as inhibition of NO production preincubated for 24 hrs followed by LPS stimulation for 24 hrs; type: cell-based; details: dose 0.125-1 µM, time 48.0 hrs
# [23] = molecular target: T1, Nuclear factor NF-kappa-B complex (Homo sapiens); assay: Inhibition of NFkappaB activation in HEK293T cells transfected with Flag-tagged TRAF2 and kappaB luciferase/pTK-renilla reporters at 2 uM incubated for 6 hrs by Dual Luciferase Reporter Assay; type: cell-based; details: HEK-293T
# HT-29 [24] = assay: Antitumor activity against human HT-29 cells xenografted in athymic nude BALB/c mouse assessed as induction of apoptosis by measuring increase in cleaved PARP expression in tumor at 15 mg/kg, ip administered every other day and measured after 14 days by immunohistochemistry analysis; type: functional, organism-based; details: time 14.0 day
# [25] = Toxicity in athymic nude BALB/c mouse xenografted with human HT-29 cells assessed as pathological changes in lungs at 5 to 15 mg/kg, ip administered every other day and measured after 14 days by hematoxylin and eosin staining-based microscopic analysis; type: organism-based; details: in vivo, 336 h, dose 5-15 mg/kg, time 14 day
# [26] = Plasma clearance in Sprague-Dawley rat at 10 mg/kg, ip measured for 24 hrs by HPLC-MS/MS analysis; type: ADME, organism-based
# Mus musculus [27] = assay: as §1, with “colon length” for “DAI score”; type: functional, organism-based; details: dose 5-10 mg/kg, time 21.0 day
# Mus musculus [28] = assay: as §1, with “hyperplasia” for “DAI score”, “at” for “at 5 to”, “50 by H” for “50”, “E staining based analysis” for “measured once a week”; type: functional, organism-based; details: time 21.0 day
# HCT-116 [29] = assay: Induction of autophagic flux in human HCT-116 cells assessed as increase in LC3 protein expression preincubated with 3-methyladenine for 1 hr followed by compound addition and measured after 24 hrs by Western blot analysis; type: functional, cell-based
# HCT-116 [30] = assay: Induction of cell death in human HCT-116 cells at 0.5 to 10 uM pretreated with Z-VAD-FMK for 1 hr followed by compound addition and measured after 24 hrs by SRB assay; type: functional, cell-based; details: dose 0.5-10 µM
smiles,measurement,setting,value
C[C@@H]1CC[C@H]2[C@H](C(=O)c3c(O)c([C@@]4(O)CC[C@@H](O)[C@H]5O[C@H]54)cn(O)c3=O)[C@H](C)C=C[C@@H]2C1,Activity,[1],Non-Toxic
same,Activity,Mus musculus [2],Active
same,IC50,HCT-116 [3],2800 nM
same,inhibition,HCT-116 [4],Active
same,Activity,HCT-116 [5],43.65%
same,viability at 5 µM,HCT-116 [6],16.5%
same,Activity,HCT-116 [7],75%
same,Activity,HCT-116 [8],32.8%
same,Activity,HCT-116 [9],3.14%
same,viability at 10 µM,HT-29 [10],36.8%
same,Activity,HT-29 [11],16.8%
same,Activity,HT-29 [12],21.9%
same,Activity,HCT-116 [13],Dose-Dependent Effect
same,Activity,HT-29 [14],Dose-Dependent Effect
same,Activity,HT-29 [15],Dose-Dependent Effect
same,Activity,HT-29 [16],Dose-Dependent Effect
same,inhibition,Mus musculus [17],Active
same,Activity,HCT-116 [18],Active
same,Activity,HT-29 [19],Active
same,Activity,HCT-116 [20],Active
same,inhibition,[21],Dose-Dependent Effect
same,inhibition,[22],Dose-Dependent Effect
same,inhibition,RAW264.7,Dose-Dependent Effect
same,inhibition,[23],Active
same,Activity,HT-29 [24],Active
same,Activity,[25],Non-Toxic
same,CL/F,[26],27 mL/min/kg
same,Activity,Mus musculus [27],Active
same,Activity,Mus musculus [28],Active
same,Activity,HCT-116 [29],Active
same,inhibition,HCT-116 [30],inactive
